Experiments:
[1] = system: Deroceras reticulatum (grey field slug); assay: Example 2: pot re-test, treated winter wheat seed with 5 adult slugs per pot, 7 days; assay type: in vivo
Excerpt: Based on the results of the experiment described in Example 1, a selection was made from the various test numbers of that experiment for re-testing, partly to confirm the conclusions of that experiment and to test the unexpected outcome of some test compounds.
The selection of test numbers (Test No.) used in the present experiment relative to those of the experiment described in Example 1 is shown in Table 7.
The same seeds as described in Example 1 were sown in earthenware pots with an internal diameter of 20 cm and a height of 18 cm, filled with 7 cm of potting soil (Trio BV, Weesp, The Netherlands) and with a top 2 cm of white quartz sand. A total of 40 winter wheat seeds was placed in each pot, in a pattern of concentric circles on top of the quartz sand, the germ of the seed facing upwards. To each pot a total of 5 adult specimens of the test slug Deroceras reticulatum (grey field slug) were added. The pots were incubated at 18-19° C. with a relative humidity of ±95% and light regime of ±18 hours light/6 hours dark, without artificial lighting. The pots were not irrigated overhead. In total, 4 parallel tests were performed for each test.
The number of damaged seeds was, the number of plants present (germinated and not eaten or damaged by the slugs), the number of dead slugs and of the number of fecal pellets were determined after 2, 3 and 7 days following the addition of the slugs.
The data were statistically analysed by using F-tests (α=0.05) and pair-wise Student-tests.

[2] = system: Deroceras reticulatum (grey field slug); assay: Example 1: pot test, treated winter wheat seed with 5 adult slugs per pot, 14 days; assay type: in vivo
How it was run: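 Fludioxonil-disinfected winter wheat seed (Kampa, 40 per pot) sown on quartz sand over potting soil with 5 adult slugs per pot; ±15° C., ±90% RH, 12 h light/12 h dark, 4 replicates. Damaged seeds, plants, dead slugs and fecal pellets counted up to day 14; F-tests and Student-tests.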

[3] = Example 2, 2 ml formulated per kg seed, 2 days after sowing
[4] = Example 2, 2 ml formulated per kg seed, 3 days after sowing
[5] = Example 2, 2 ml formulated per kg seed, 7 days after sowing
[6] = Example 2, 4 ml formulated per kg seed, 2 days after sowing
[7] = Example 2, 4 ml formulated per kg seed, 3 days after sowing
[8] = Example 2, 4 ml formulated per kg seed, 7 days after sowing
[9] = Example 2, 10 ml formulated per kg seed, 2 days after sowing
[10] = Example 2, 10 ml formulated per kg seed, 3 days after sowing
[11] = Example 2, 10 ml formulated per kg seed, 7 days after sowing
[12] = 2 ml formulated per kg seed, 2 days after sowing
[13] = 2 ml formulated per kg seed, 3 days after sowing
[14] = 2 ml formulated per kg seed, 7 days after sowing
[15] = 2 ml formulated per kg seed, 10 days after sowing
[16] = 2 ml formulated per kg seed, 14 days after sowing
[17] = 4 ml formulated per kg seed, 2 days after sowing
[18] = 4 ml formulated per kg seed, 3 days after sowing
[19] = 4 ml formulated per kg seed, 7 days after sowing
[20] = 4 ml formulated per kg seed, 10 days after sowing
[21] = 4 ml formulated per kg seed, 14 days after sowing
[22] = 10 ml formulated per kg seed, 2 days after sowing
[23] = 10 ml formulated per kg seed, 3 days after sowing
[24] = 10 ml formulated per kg seed, 7 days after sowing
[25] = 10 ml formulated per kg seed, 10 days after sowing
[26] = 10 ml formulated per kg seed, 14 days after sowing

O=CC=Cc1ccccc1 [cinnamaldehyde]
fecal pellets in comparison to the control ([1]; Example 2): equal number of fecal pellets | number of plants present relative to untreated ([1]; Example 2): no significantly different results | phytotoxic effect on the seeds ([1]; Example 2): phytotoxic effect on the seeds | reduction of damaged seeds relative to the untreated control ([1]; Example 2): more than 50% | result of seed treatment against slugs (conclusion) ([1]; Example 2): does not result in the desired effect | percentage of damaged seeds after 7 days ([1]; Example 2, 2 ml formulated per kg seed): 63% | Mean number of damaged seeds per pot [1, 3]: 8.8 | Mean number of dead slugs per pot [1, 3]: 0 | Mean number of damaged seeds per pot [1, 4]: 15.0 | Mean number of dead slugs per pot [1, 4]: 0 | Mean number of damaged seeds per pot [1, 5]: 25.0 | Mean number of dead slugs per pot [1, 5]: 0.5 | percentage of damaged seeds after 7 days ([1]; Example 2, 4 ml formulated per kg seed): 36% | Mean number of damaged seeds per pot [1, 6]: 5.0 | Mean number of dead slugs per pot [1, 6]: 0 | Mean number of damaged seeds per pot [1, 7]: 8.8 | Mean number of dead slugs per pot [1, 7]: 0 | Mean number of damaged seeds per pot [1, 8]: 14.3 | Mean number of dead slugs per pot [1, 8]: 0.8 | percentage of damaged seeds after 7 days ([1]; Example 2, 10 ml formulated per kg seed): 39% | Mean number of damaged seeds per pot [1, 9]: 6.0 | Mean number of dead slugs per pot [1, 9]: 0 | Mean number of damaged seeds per pot [1, 10]: 10.5 | Mean number of dead slugs per pot [1, 10]: 0 | Mean number of damaged seeds per pot [1, 11]: 15.8 | Mean number of dead slugs per pot [1, 11]: 0.5 | number of damaged seeds relative to the untreated seed ([1]; Example 2, two days after the start): significant reduction in the number of damaged seeds | Mean number of fecal pellets per pot ([1]; dosage 2 ml, 2 days): 45 | Mean number of plants present per pot ([1]; dosage 2 ml, 2 days): 0 | Mean number of fecal pellets per pot ([1]; dosage 2 ml, 3 days): 91 | Mean number of plants present per pot ([1]; dosage 2 ml, 3 days): 0 | Mean number of fecal pellets per pot ([1]; dosage 2 ml, 7 days): 124 | Mean number of plants present per pot ([1]; dosage 2 ml, 7 days): 0 | number of utilizable plants after 7 days ([1]; dosage 2 ml, 7 days): 0 | Mean number of fecal pellets per pot ([1]; dosage 4 ml, 2 days): 28 | Mean number of plants present per pot ([1]; dosage 4 ml, 2 days): 0 | Mean number of fecal pellets per pot ([1]; dosage 4 ml, 3 days): 58 | Mean number of plants present per pot ([1]; dosage 4 ml, 3 days): 0 | Mean number of fecal pellets per pot ([1]; dosage 4 ml, 7 days): 82 | Mean number of plants present per pot ([1]; dosage 4 ml, 7 days): 0 | number of utilizable plants after 7 days ([1]; dosage 4 ml, 7 days): 0 | Mean number of fecal pellets per pot ([1]; dosage 10 ml, 2 days): 42 | Mean number of plants present per pot ([1]; dosage 10 ml, 2 days): 0 | Mean number of fecal pellets per pot ([1]; dosage 10 ml, 3 days): 77 | Mean number of plants present per pot ([1]; dosage 10 ml, 3 days): 0 | Mean number of fecal pellets per pot ([1]; dosage 10 ml, 7 days): 91 | Mean number of plants present per pot ([1]; dosage 10 ml, 7 days): 0 | number of utilizable plants after 7 days ([1]; dosage 10 ml, 7 days): 0 | number of utilizable plants after 14 days ([2]; 2 ml formulated per kg seed): 6.8 | percentage of damaged seeds after 14 days ([2]; 2 ml formulated per kg seed): 64% | Mean number of damaged seeds per pot [2, 12]: 2.0 | Mean number of dead slugs per pot [2, 12]: 0 | Mean number fecal pellets per pot [2, 13]: 47 | Mean number of damaged seeds per pot [2, 13]: 5.5 | Mean number of dead slugs per pot [2, 13]: 1.3 | Mean number of plants present per pot [2, 13]: 3.3 | Mean number fecal pellets per pot [2, 14]: 71 | Mean number of damaged seeds per pot [2, 14]: 24.5 | Mean number of dead slugs per pot [2, 14]: 1.3 | Mean number of plants present per pot [2, 14]: 5.0 | Mean number fecal pellets per pot [2, 15]: 80 | Mean number of damaged seeds per pot [2, 15]: 24.8 | Mean number of dead slugs per pot [2, 15]: 1.3 | Mean number of plants present per pot [2, 15]: 6.8 | Mean number fecal pellets per pot [2, 16]: 95 | Mean number of damaged seeds per pot [2, 16]: 25.8 | Mean number of dead slugs per pot [2, 16]: 1.8 | Mean number of plants present per pot [2, 16]: 6.8 | number of utilizable plants after 14 days ([2]; 4 ml formulated per kg seed): 0.5 | percentage of damaged seeds after 14 days ([2]; 4 ml formulated per kg seed): 73% | Mean number of damaged seeds per pot [2, 17]: 3.3 | Mean number of dead slugs per pot [2, 17]: 0 | Mean number fecal pellets per pot [2, 18]: 46 | Mean number of damaged seeds per pot [2, 18]: 6.5 | Mean number of dead slugs per pot [2, 18]: 0 | Mean number of plants present per pot [2, 18]: 3.0 | Mean number fecal pellets per pot [2, 19]: 111 | Mean number of damaged seeds per pot [2, 19]: 26.5 | Mean number of dead slugs per pot [2, 19]: 0.3 | Mean number of plants present per pot [2, 19]: 1.3 | Mean number fecal pellets per pot [2, 20]: 152 | Mean number of damaged seeds per pot [2, 20]: 27.0 | Mean number of dead slugs per pot [2, 20]: 0.3 | Mean number of plants present per pot [2, 20]: 1.8 | Mean number fecal pellets per pot [2, 21]: 160 | Mean number of damaged seeds per pot [2, 21]: 29.0 | Mean number of dead slugs per pot [2, 21]: 0.8 | Mean number of plants present per pot [2, 21]: 0.8 | number of utilizable plants after 14 days ([2]; 10 ml formulated per kg seed): 0.5 | percentage of damaged seeds after 14 days ([2]; 10 ml formulated per kg seed): 37% | Mean number of damaged seeds per pot [2, 22]: 4.0 | Mean number of dead slugs per pot [2, 22]: 0 | Mean number fecal pellets per pot [2, 23]: 54 | Mean number of damaged seeds per pot [2, 23]: 7.0 | Mean number of dead slugs per pot [2, 23]: 1.3 | Mean number of plants present per pot [2, 23]: 5.0 | Mean number fecal pellets per pot [2, 24]: 58 | Mean number of damaged seeds per pot [2, 24]: 10.3 | Mean number of dead slugs per pot [2, 24]: 1.3 | Mean number of plants present per pot [2, 24]: 0.3 | Mean number fecal pellets per pot [2, 25]: 77 | Mean number of damaged seeds per pot [2, 25]: 10.3 | Mean number of dead slugs per pot [2, 25]: 1.3 | Mean number of plants present per pot [2, 25]: 0.5 | Mean number fecal pellets per pot [2, 26]: 93 | Mean number of damaged seeds per pot [2, 26]: 14.8 | Mean number of dead slugs per pot [2, 26]: 1.3 | Mean number of plants present per pot [2, 26]: 0.8 | dead slugs relative to the untreated seed ([2]; Example 1, 2 or 10 ml per kg of seed, 3 days after the start): significantly more dead slugs | damaged seeds relative to the untreated seed ([2]; Example 1, all dosages (2, 4, 10 ml/kg), after 3 and 7 days): significantly less damaged seeds | protection / slug controlling effect (conclusion) ([2]; Example 1, winter wheat seed treatment, dosages tested): no protection to the plant

Source: patent US20070167492A1, “Molluscicidal agents” (priority 2003, published 2007)
